Results on four compounds are retold here after ChEMBL document CHEMBL2417463, “Synthesis and identification of new flavonoids targeting liver X receptor β involved pathway as potential facilitators of Aβ clearance with reduced lipid accumulation” (J Med Chem, 2013).

Active and inactive are the calls of the source. No cut-off for these calls is given here.

Assay type in all cases: cell-based
For data set [1], the target named is T1, Oxysterols receptor LXR-beta (Homo sapiens) (UniProt P55055).
T1 sequence (whole entry): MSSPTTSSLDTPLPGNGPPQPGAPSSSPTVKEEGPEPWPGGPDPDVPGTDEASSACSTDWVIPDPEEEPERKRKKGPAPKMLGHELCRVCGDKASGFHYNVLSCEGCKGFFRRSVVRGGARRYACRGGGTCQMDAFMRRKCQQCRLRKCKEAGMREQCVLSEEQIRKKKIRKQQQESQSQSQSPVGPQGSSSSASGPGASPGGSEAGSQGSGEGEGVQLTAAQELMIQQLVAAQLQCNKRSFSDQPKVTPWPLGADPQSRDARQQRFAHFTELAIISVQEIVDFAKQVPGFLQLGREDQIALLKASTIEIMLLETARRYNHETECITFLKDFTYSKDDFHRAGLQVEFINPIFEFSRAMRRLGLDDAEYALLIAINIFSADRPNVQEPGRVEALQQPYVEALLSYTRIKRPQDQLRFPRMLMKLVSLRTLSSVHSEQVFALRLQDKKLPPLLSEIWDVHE
As to the kind of experiment: Agonist activity at human LXRbeta transfected in HEK293 cells at 0.1 uM after 24 hrs by luciferase reporter gene assay relative to vehicle-treated control. (In general: Reporter assays use an easily measured gene product as a stand-in for the process of interest.)

Data set [2] has as its target T2, Oxysterols receptor LXR-alpha (Homo sapiens) (UniProt Q13133).
T2 sequence (whole entry): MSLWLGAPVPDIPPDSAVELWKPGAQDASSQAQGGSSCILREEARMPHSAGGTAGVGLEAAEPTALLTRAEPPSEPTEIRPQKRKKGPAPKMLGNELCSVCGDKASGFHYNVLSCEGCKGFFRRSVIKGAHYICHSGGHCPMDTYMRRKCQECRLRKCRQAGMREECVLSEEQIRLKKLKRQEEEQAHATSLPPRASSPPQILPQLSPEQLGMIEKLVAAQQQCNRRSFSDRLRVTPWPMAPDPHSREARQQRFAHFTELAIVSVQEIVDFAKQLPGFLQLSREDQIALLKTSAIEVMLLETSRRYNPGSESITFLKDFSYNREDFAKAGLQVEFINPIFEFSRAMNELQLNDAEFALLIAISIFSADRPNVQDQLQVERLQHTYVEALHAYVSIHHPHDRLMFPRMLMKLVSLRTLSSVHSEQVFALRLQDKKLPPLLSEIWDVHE
As to the kind of experiment: Agonist activity at human LXRalpha transfected in HEK293 cells at 1 uM after 24 hrs by luciferase reporter gene assay relative to vehicle-treated control.

The target in data set [3] is T2, Oxysterols receptor LXR-alpha (Homo sapiens). As to the kind of experiment: Agonist activity at human LXRalpha transfected in HEK293 cells at 0.1 uM after 24 hrs by luciferase reporter gene assay relative to vehicle-treated control.
Data set [4] has as its target T3, Oxysterols receptor LXR-beta (Mus musculus) (UniProt Q60644).
T3 sequence (whole entry): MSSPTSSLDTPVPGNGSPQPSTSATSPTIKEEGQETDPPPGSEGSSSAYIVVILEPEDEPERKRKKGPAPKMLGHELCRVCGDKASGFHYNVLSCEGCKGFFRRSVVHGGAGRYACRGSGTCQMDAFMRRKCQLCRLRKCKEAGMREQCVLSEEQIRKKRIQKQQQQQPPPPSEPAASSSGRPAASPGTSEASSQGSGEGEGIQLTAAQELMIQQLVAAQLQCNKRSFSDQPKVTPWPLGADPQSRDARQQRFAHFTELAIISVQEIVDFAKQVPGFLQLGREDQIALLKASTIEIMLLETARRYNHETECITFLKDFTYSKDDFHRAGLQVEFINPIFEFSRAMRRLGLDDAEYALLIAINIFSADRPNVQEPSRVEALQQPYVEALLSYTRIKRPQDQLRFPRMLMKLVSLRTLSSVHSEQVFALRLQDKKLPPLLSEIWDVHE
The data set is described as follows: Agonist activity at LXRbeta in mouse RAW264.7 cells assessed as induction of ABCA1 promoter activation at 1 uM after 24 hrs by Dual-Glo luciferase reporter gene assay relative to vehicle-treated control.

The subject of data set [5] is HepG2. As to the kind of experiment: Induction of cytoplasmic lipid accumulation in human HepG2 cells at 1 uM after 4 days by oil red O staining-based light microscopic analysis. The following applies: hepg2, 96 h.
The subject of data set [6] is HepG2. As to the kind of experiment: Induction of intracellular triglyceride accumulation in human HepG2 cells at 10 uM after 4 days relative to vehicle-treated control. The following applies: hepg2, 96 h.
Data set [7] concerns HepG2. As to the kind of experiment: Induction of intracellular triglyceride accumulation in human HepG2 cells at 1 uM after 4 days relative to vehicle-treated control. Particulars: hepg2, 96 h.
Data set [8] has as its target T3, Oxysterols receptor LXR-beta (Mus musculus). The data set is described as follows: Agonist activity at LXRbeta in mouse BV2 cells assessed as degradation of intracellular soluble amyloid beta42 at 1 uM preincubated for 18 hrs followed by soluble amyloid beta42 addition measured after 24 hrs by ELISA relative to vehicle-treated control. Particulars: BV-2. In general terms: In an ELISA, binding on a coated surface is turned into a signal by an enzyme label.

The target in data set [9] is T1, Oxysterols receptor LXR-beta (Homo sapiens). As to the kind of experiment: Agonist activity at human LXRbeta transfected in HEK293 cells at 1 uM after 24 hrs by luciferase reporter gene assay relative to vehicle-treated control.
In data set [10] the test system is HEK293. As to the kind of experiment: Cytotoxicity against HEK293 cells assessed as inhibition of cell viability at 50 uM after 48 hrs by SRB assay relative to vehicle-treated control. Particulars: human, hek293, 48 h.
The nature of data set [11]: (§1) Cytotoxicity against human HepG2 cells assessed as inhibition of cell viability at 50 uM after 48 hrs by SRB assay relative to vehicle-treated control. Particulars: HepG2 cells, read-out: Activity. Background: In SRB staining, fixed cells bind dye roughly in proportion to their protein.
The subject of data set [12] is BV-2. The data set is described as follows: Cytotoxicity against mouse BV2 cells assessed as inhibition of cell viability at 50 uM after 48 hrs by SRB assay relative to vehicle-treated control. Particulars: bv-2, 48 h.
In data set [13] the test system is RAW264.7. As to the kind of experiment: Cytotoxicity against mouse RAW264.7 cells assessed as inhibition of cell viability at 50 uM after 48 hrs by SRB assay relative to vehicle-treated control. Particulars: raw264.7, 48 h.
Data set [14] has as its system HepG2. As to the kind of experiment: Induction of cytoplasmic lipid accumulation in human HepG2 cells at 10 uM after 4 days by oil red O staining-based light microscopic analysis. The following applies: hepg2, 96 h.
Data set [15] has as its target T3, Oxysterols receptor LXR-beta (Mus musculus). The data set is described as follows: Agonist activity at LXRbeta in mouse BV2 cells assessed as upregulation of apoE protein expression at 1 uM after 48 hrs by Western blot analysis relative to vehicle-treated control. Particulars: BV-2.
The target is the same in data set [16]. The data set is described as follows: Agonist activity at LXRbeta in mouse BV2 cells assessed as upregulation of apoE protein expression at 0.1 uM after 48 hrs by Western blot analysis relative to vehicle-treated control. Particulars: BV-2.
Data set [17] shares this target. As to the kind of experiment: Agonist activity at LXRbeta in mouse BV2 cells assessed as upregulation of ABCA1 protein expression after 12 to 48 hrs by Western blot analysis. The following applies: BV-2.
The target is the same in data set [18]. As to the kind of experiment: Agonist activity at LXRbeta in mouse BV2 cells assessed as upregulation of ABCA1 protein expression at 1 uM after 12 to 48 hrs by Western blot analysis. Particulars: BV-2.
Data set [19] has the same target. The data set is described as follows: Agonist activity at LXRbeta in mouse RAW264.7 cells assessed as upregulation of ABCA1 protein expression after 18 to 48 hrs by Western blot analysis.
For data set [20] the target is unchanged. As to the kind of experiment: Agonist activity at LXRbeta in mouse RAW264.7 cells assessed as upregulation of ABCA1 protein expression at 1 uM after 18 to 48 hrs by Western blot analysis.
Data set [21] has the same target. As to the kind of experiment: Agonist activity at LXRbeta in mouse RAW264.7 cells assessed as induction of ABCA1 promoter activation after 24 hrs by Dual-Glo luciferase reporter gene assay.
Data set [22] has as its system HepG2. Described as §1. The following applies: hepg2, 48 h, 50 µM.
The target of data set [23] is T3, Oxysterols receptor LXR-beta (Mus musculus). As to the kind of experiment: Agonist activity at LXRbeta in mouse BV2 cells assessed as degradation of intracellular soluble amyloid beta42 at 0.1 uM preincubated for 18 hrs followed by soluble amyloid beta42 addition measured after 24 hrs by ELISA relative to vehicle-treated control. The following applies: BV-2.
The target is the same in data set [24]. The data set is described as follows: Agonist activity at LXRbeta in mouse BV2 cells assessed as degradation of intracellular amyloid beta42 preincubated for 18 hrs followed by soluble amyloid beta42 addition measured after 24 hrs by ELISA. The following applies: BV-2.
For data set [25] the target is unchanged. As to the kind of experiment: Agonist activity at LXRbeta in mouse BV2 cells assessed as upregulation of apoE protein expression at 10 uM after 48 hrs by Western blot analysis relative to vehicle-treated control. Particulars: BV-2.

As to `O=C(O)Cc1cccc(OCCCN(Cc2cccc(C(F)(F)F)c2Cl)CC(c2ccccc2)c2ccccc2)c1`, the fold change (FC) came to 1.42 in data set [1]; 2.38 in data set [2]; 1.53 in [3]; 1.83 in data set [4]; 1.86 in data set [9]. Moreover, the Activity result was “Toxic” in data set [5], 242% in [6], 43% in data set [7] and 55% in data set [8].

For the compound `O=S(=O)(c1ccccc1)N(CC(F)(F)F)c1ccc(C(O)(C(F)(F)F)C(F)(F)F)cc1` [T091317], the values for the Activity entry in data set [5] and in [7] were “Toxic” and 175%, respectively.

With `O=c1cc(-c2c[nH]c3ccccc23)oc2cc(O)ccc12`, the fold change (FC) in data set [1] came to 1.19; in data set [2] it was 1.02; in data set [3], 1.32; in data set [4] it was 1.9; in data set [15], 1.4; in [16], 1.1. The compound also registered a fold change (FC) in [9] of 1.76. For the same compound, the Activity entry is “Non-toxic” in data set [10]; “Non-toxic” in data set [12]; “Non-toxic” in data set [13]; “Toxic” in data set [14]; 18% in [6]; -6% in data set [7]. The Activity in data set [8] was 38%; in [17] it was “Dose-dependent effect”; in [19] it was “Dose-dependent effect”. In addition, the inhibition at 48 h, 50 µM in data set [11] was determined as 45%. Moreover, the result in data set [18] and in data set [20] was Active.

`Nc1ccc(C(=O)/C=C/c2ccc3ccccc3c2)c(O)c1`: the fold change (FC) in data set [1] was found to be 1.38; in [2], 1.11; in [3], 1.06; in data set [4], 2.64; in data set [25] it was 1.7; in [15], 1.4. The figures for the fold change (FC) in data set [16] and in data set [9] were 1.4 and 2.22, respectively. In addition, the Activity result in data set [21] was “Dose-dependent effect”; in data set [10], “Non-toxic”; in data set [22], “Non-toxic”; in data set [12] it was “Non-toxic”; in data set [13], “Non-toxic”; in data set [14], “Toxic”. Moreover, the Activity in data set [6] is 19%; in data set [7], -21%; in data set [23], 44%; in data set [24] it was “Dose-dependent effect”; in data set [8] it was 37%; in data set [17] it was “Dose-dependent effect”. Besides, in data set [19], the Activity result was “Dose-dependent effect”. Also, the result in data set [18] and in data set [20] was Active.
